Assay results published in patent US20150094283A1, “COMBINATION” (GlaxoSmithKline LLC, priority 2010, published 2015).

Tested on: SKOV3 tumor xenografts (human ovarian carcinoma)
Assay: Growth of SKOV3 tumor xenografts in SCID mice (tumor growth inhibition)
Format: in vivo
Settings: PO, compared to vehicle treated mice
Protocol: Female SCID mice were implanted subcutaneously with 5×10^6 SKOV3 cells (human ovarian carcinoma). When the tumor volume reached 300-400 mm^3, mice were block randomized to different treatment groups (n=8 mice/group). Mice received the AKT inhibitor, Compound C as the free base, at 10 or 30 mg/kg, once daily (SID) for 21 days in 20% PEG-400, 1% DMSO in water. The VEGFR inhibitor, Compound A as the monohydrochloride salt, was administered at 100 mg/kg, twice/day (BID) for 21 days either alone or in combination with the AKT inhibitor. Mice were weighed and tumors measured by calipers twice weekly. Tumor volumes were calculated using the formula: tumor volume=(Length×Width^2)/2. The percentage of tumor growth inhibition was calculated on each day of tumor measurement using the formula: 100×[1−(average growth of the compound-treated tumors/average growth of vehicle-treated control tumors)]. Data is plotted as mean±sem for tumor volume for each group.

Row | SMILES | Tumor Growth Inhibition (Compound A (monohydrochloride salt) 100 mg/kg, BID x21 d, 100 mg/kg) [%] | Tumor Growth Inhibition (Compound C (free base) 10 mg/kg, SID x21 d, 10 mg/kg) [%] | Tumor Growth Inhibition (Compound C (free base) 30 mg/kg, SID x21 d, 30 mg/kg) [%]
1 | Cc1ccc(Nc2nccc(N(C)c3ccc4c(C)n(C)nc4c3)n2)cc1S(N)(=O)=O [Compound A, 5-[[4-[(2,3-dimethyl-2H-indazol-6-yl)methylamino]-2-pyrimidinyl]amino]-2-methylbenzenesulfonamide, reference compound] | 47 | – | –
2 | Cn1ncc(Cl)c1-c1cc(C(=O)N[C@H](CN)Cc2ccc(F)c(F)c2)oc1Cl [Compound C, N-{(1S)-2-amino-1-[(3,4-difluorophenyl)methyl]ethyl}-5-chloro-4-(4-chloro-1-methyl-1H-pyrazol-5-yl)-2-furancarboxamide] | – | 86 | 67
